Values quoted from earlier work as cited in US7968723B2, “Compounds, their preparation and use” (High Point Pharmaceuticals, LLC, priority 2004, dated 2011).

Legend:
[1] = test system: high fat diet induced Insulin resistant mice and diabetic ob/ob; conditions: PNAS 2003, 100, 15924-15929
[2] = test system: C2C12 muscle cells; conditions: in vitro treatment of C2C12 muscle cells; BioChem. Biophys. Acta 2003, 1633, 43-50; Mol. Endocrin. 2003, 17, 2477-2493

Cc1cc(SCc2sc(-c3ccc(C(F)(F)F)cc3)nc2C)ccc1OCC(=O)O [GW501516]
insulin sensitivity [1]: improved insulin sensitivity
plasma glucose and insulin [1]: lowering of plasma glucose and insulin
regulation of genes (TG hydrolysis, FFA oxidation, lipid utilization, energy expenditure, lipid efflux) [2]: regulation of genes involved with TG hydrolysis and FFA oxidation
